Laboratory results from ChEMBL document CHEMBL2073984, “Nonlinear oral pharmacokinetics of the alpha-antagonist 4-amino-5-(4-fluorophenyl)-6,7-dimethoxy-2-[4-(morpholinocarbonyl)-perhydro-1,4-diazepin-1-yl]quinoline in humans: use of preclinical data to rationalize clinical observations” (Drug Metab Dispos, 2004).

Biological target: ATP-dependent translocase ABCB1 (Homo sapiens, UniProt P08183)
Assay: TP_TRANSPORTER: transepithelial transport in Caco2 cells
Assay type: functional, cell-based
Conditions: caco-2

Sequence of ATP-dependent translocase ABCB1 (P08183 whole entry): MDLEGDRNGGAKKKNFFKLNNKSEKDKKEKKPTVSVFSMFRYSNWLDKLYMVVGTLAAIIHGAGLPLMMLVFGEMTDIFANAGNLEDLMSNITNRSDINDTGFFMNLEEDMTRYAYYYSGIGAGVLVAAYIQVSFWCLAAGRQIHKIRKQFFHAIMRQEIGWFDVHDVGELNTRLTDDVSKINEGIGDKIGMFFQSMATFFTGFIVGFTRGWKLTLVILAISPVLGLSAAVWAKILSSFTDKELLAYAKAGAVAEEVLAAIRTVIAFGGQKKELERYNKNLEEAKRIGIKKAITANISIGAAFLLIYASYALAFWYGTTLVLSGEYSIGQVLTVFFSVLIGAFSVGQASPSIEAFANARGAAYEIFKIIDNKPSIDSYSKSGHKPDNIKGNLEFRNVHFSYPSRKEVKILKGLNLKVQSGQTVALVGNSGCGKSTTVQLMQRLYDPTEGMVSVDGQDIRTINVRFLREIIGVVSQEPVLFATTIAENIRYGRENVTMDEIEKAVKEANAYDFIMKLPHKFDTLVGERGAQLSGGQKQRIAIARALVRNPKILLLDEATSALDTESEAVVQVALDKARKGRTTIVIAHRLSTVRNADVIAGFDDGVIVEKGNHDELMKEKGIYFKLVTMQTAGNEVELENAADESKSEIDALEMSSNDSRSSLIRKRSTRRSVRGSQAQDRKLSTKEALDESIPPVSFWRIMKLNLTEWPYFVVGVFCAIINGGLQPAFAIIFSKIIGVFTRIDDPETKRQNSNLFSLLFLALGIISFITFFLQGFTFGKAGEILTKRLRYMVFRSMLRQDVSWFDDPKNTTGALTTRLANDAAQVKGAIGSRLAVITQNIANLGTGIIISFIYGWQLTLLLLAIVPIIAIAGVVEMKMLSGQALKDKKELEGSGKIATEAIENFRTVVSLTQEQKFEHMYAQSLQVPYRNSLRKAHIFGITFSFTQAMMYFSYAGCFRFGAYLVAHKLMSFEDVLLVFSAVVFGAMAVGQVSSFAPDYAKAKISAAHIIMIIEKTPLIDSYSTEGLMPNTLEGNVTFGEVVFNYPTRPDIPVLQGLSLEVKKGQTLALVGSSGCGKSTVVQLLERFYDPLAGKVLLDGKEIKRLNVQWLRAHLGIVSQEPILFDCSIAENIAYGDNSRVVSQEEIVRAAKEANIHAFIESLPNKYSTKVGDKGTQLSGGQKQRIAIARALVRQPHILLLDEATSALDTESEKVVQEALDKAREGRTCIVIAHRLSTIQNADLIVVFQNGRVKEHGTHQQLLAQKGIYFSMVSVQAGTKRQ

Activity: substrate [+]
Structure (SMILES): COc1cc2nc(N3CCCN(C(=O)N4CCOCC4)CC3)cc(N)c2c(-c2ccc(F)cc2)c1OC
